Square brackets hold non-standard residues; d marks the D form. Ends that are not written are not given here. Peptide text beside a SMILES is read from it. hArg = N=C(N)NCCCC[C@H](N)C(=O)O; Nle = CCCC[C@H](N)C(=O)O; Aib = CC(C)(N)C(=O)O

7 compounds from patent publication US7572765B2, “Conformationally constrained parathyroid hormone (PTH) analogs” (The General Hospital Corporation, priority 2001, dated 2009) can be followed below.

The target in data set [1] is T1, human P1R (Homo sapiens, UniProt Q03431).
T1 construct: expressed in transfected cells; host or cells: HKRK-B28 (porcine kidney LLC-PK1, stably transfected)
T1 sequence (Q03431 27-593): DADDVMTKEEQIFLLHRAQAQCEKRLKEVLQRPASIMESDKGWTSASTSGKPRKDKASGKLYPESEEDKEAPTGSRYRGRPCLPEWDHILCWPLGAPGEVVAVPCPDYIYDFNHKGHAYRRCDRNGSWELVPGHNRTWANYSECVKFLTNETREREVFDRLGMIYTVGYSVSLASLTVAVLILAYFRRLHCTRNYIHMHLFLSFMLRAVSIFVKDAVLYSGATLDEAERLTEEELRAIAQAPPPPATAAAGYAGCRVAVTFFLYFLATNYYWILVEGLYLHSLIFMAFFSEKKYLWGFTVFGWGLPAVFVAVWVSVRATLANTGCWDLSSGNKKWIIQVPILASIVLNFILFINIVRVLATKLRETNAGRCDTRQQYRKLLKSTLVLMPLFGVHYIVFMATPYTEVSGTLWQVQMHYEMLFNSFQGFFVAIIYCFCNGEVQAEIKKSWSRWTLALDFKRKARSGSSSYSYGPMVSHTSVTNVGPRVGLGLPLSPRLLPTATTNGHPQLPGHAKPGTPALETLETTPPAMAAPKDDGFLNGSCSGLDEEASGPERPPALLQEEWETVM
In words: cAMP stimulation in HKRK-B28 cells. It counts as cell-based. The following applies: for cAMP EMax(obs.): basal 4.0 ± 0.1 pmole/well not subtracted. The method, then: (§1) Cell Culture. The cell line HKRK-B28 (Takasu, H., et al., J. Bone Miner. Res. 14:11-20 (1999)) was derived from the porcine kidney cell line, LLC-PK1 by stable transfection with plasmid DNA encoding the human P1R and expresses ˜280,000 receptors per cell. These cells, as well as COS-7 cells and SaOS-2-B10 cells, were cultured at […] in T-75 flasks ([…]) in Dulbecco's modified Eagle's medium (DMEM) supplemented with fetal bovine serum (10%), penicillin G (20 units/ml), streptomycin sulfate (20 μg/ml) and amphotericin B (0.05 μg/ml) in a humidified atmosphere containing 5% CO2. Stock solutions of EGTA/trypsin and antibiotics were from GIBCO; fetal bovine serum was from Hyclone Laboratories (Logan, Utah). COS-7 cells sub-cultured in 24-well plates were transfected with plasmid DNA (200 ng per well) encoding the wild-type human P1R or truncated human P1R deleted for residues (24-181) (Shimizu, M., et al., J. Biol. Chem. 275:21836-21843 (2000)) that was purified by cesium chloride/ethidium bromide density gradient centrifugation, and FuGENE 6 transfection reagent (Roche Indianapolis Ind.) according to the manufacturer's recommended procedure. All cells, in 24-well plates, were treated with fresh media and shifted to 33° C. for 12 to 24 h prior to assay.
cAMP Stimulation. Stimulation of cells with peptide analogs was performed in 24-well plates. Cells were rinsed with 0.5 mL of binding buffer (50 mM Tris-HCI, […], 5 mM KCl, 2 mM CaCl2, 5% heat-inactivated horse serum, 0.5% fetal bovine serum, adjusted to pH 7.5 with HCl) and treated with 200 μL of cAMP assay buffer (Delbecco's modified Eagle's medium containing 2 mM 3-isobutyl-1-methylxanthine, 1 mg/mL bovine serum albumin, 35 mM Hepes-NaOH, pH 7.4) and 100 μL of binding buffer containing varying amounts of peptide analog (final volume=300 μL). The medium was removed after incubation for 30 to 60 minutes at room temperature, and the cells were frozen on dry ice, lysed with 0.5 mL 50 mM HCl, and refrozen ([…]). The cAMP content of the diluted lysate was determined by radioimmunoassay. The EC50 response values were calculated using nonlinear regression (see below).
(§2) Data Calculation. Calculations were performed using Microsoft® Excel. Nonlinear regression analyses of binding and cAMP dose-response data were performed using the four-parameter equation: yp=Min+[(Max−Min)/(1+(IC50/x)^slope)]. The Excel Solver function was utilized for parameter optimization, as described previously (Carter, P. H., et al., Endocrinology 140: 4972-4981 (1999); Bowen, W. P., and Jerman, J. C., Trends in Pharmacol. Sci. 16: 413-417 (1995)). Differences between paired data sets were statistically evaluated using a one-tailed Student's t-test, assuming unequal variances for the two sets.

For data set [2], the target named is T1, human P1R. In words: Competition binding in HKRK-B28 cells. The following applies: for Binding IC50: HKRK-B28 cells, tracer 125I-[M]PTH(1-21)amide, 4 h at 4° C., N.B. = no binding detected at 10 μm peptide. The method, then: as §1
Competition Binding. Binding reactions were performed with HKRK-B28 cells or in COS-7 cells in 24-well plates. The cells were rinsed with 0.5 mL of binding buffer, and then treated successively with 100 μL binding buffer, 100 μL of binding buffer containing various amounts of unlabeled competitor ligand, and 100 μL of binding buffer containing ca. 100,000 cpm of ^125I-[M]PTH(1-21) or ^125I-[Aib^1,3,M]PTH(1-21)} (ca. 26 fmol; final volume=300 μL). Incubations were 4 to 6 h at 4° C., at which time near equilibrium conditions were attained. Cells were then placed on ice, the binding medium was removed, and the monolayer was rinsed three times with 0.5 mL of cold binding buffer. The cells were subsequently lysed with 0.5 mL […] and counted for radioactivity. For each tracer and in each experiment, the non-specific binding was determined as the radioactivity that bound in the presence of the same unlabeled peptide at a concentration of 1 μM, and was ˜1% of total radioactivity added for each tracer. The maximum specific binding (B0) was the total radioactivity bound in the absence of competing ligand, corrected for nonspecific binding, and for each tracer, ranged from 8% to 20% of the total radioactivity added. Nonlinear regression was used to calculate binding IC50 values (see below). Scatchard transformations of homologous competition binding data derived from studies with 26 fmol of ^125I-[Aib^1,3,M]PTH(1-21) were employed for estimations of apparent equilibrium dissociation constant (kDapps) and total number of ligand binding sites (Bmax), assuming a single class of binding sites and equal affinities of the iodinated and non iodinated ligand.
as §2
The P1R-binding properties of these analogs were assayed in competition studies performed in […]. In previous studies, PTH(1-14) binding could not be detected using ^125I-PTH(1-34) and related N-terminally intact and relatively unmodified radioligands (Luck, M. D., et al., Molecular Endocrinology 13:670-680 (1999)). […]

Data set [3] is described as follows: Circular dichroism spectroscopy (helical content). Type of data set: physicochemical. The method, then: Circular Dichroism. Circular Dichroism spectra were recorded on a Jasco model 710 spectropolarimeter; peptides were analyzed at a concentration of20 μM in 50 mM sodium phosphate buffer pH 7.4, or the same buffer containing 2,2,2-trifluoroethanol at 20% (v/v). Spectroscopic scans were preformed at 20° C. and at wavelengths between […], with data recored at each 1 nM interval. The spectral bandwidth was 1.5 nM and 8 scans were accumulated and averaged for each sample. At each wavelength, the mean residue elipticity [θ×100/l×C×n); where θ is the raw elipticity value (in dimensions of millidegree), l is the sample path length, C=is the molar peptide concentration, and n is the number of residues in the peptide (Bowen, W. P., and Jerman, J. C., Trends in Pharmacol. Sci. 16: 413-417 (1995)). The helical content of each peptide was estimated by dividing [θ] observed at 222 nM for that peptide by −28,100, which is the reported [θ]222obs for a model helical decapeptide (Bowen, W. P., and Jerman, J. C., Trends in Pharmacol. Sci. 16: 413-417 (1995)).
Circular dichroism (CD) spectroscopy was used to analyze the potential effects that the Aib substitutions had on peptide secondary structure when the peptides were free in solution. Samples were analyzed in both aqueous phosphate buffer and in phosphate buffer containing 2,2,2-trifloroethanol, an organic solvent which promotes helical structure in oligopeptides, including PTH peptide fragments (Pellegrini, M., et al., J. Biol. Chem. 273:10420-10427 (1998); Gronwald, W., et al., Biol. Chem. Hoppe Seyler 377:175-186 (1996); Barden, J. A., and Kemp, B. E., Biochemistry 32:7126-7132 (1993)). In phosphate buffer, the helical content of each peptide, estimated from the elipticity observed at 222 nM, was small (≦16%); however, [Aib^1,3,M]PTH(1-14) contained nearly twice as much helix as did [M]PTH(1-14) (16% and 8.1% respectively), as did [Aib^1,3,M]PTH(1-1l), as compared to […] (13% and 7.5% respectively, Table 4). […] The higher helical contents of these two peptides were evident not only from the negative elipticities at […] and 222 nM, but also from the positive elipticities at 192 nM (FIG. 6).

Turning to `CSCC[C@H](NC(=O)[C@H](CC(C)C)NC(=O)[C@H](CCC(N)=O)NC(=O)C(C)(C)NC(=O)[C@H](CCC(=O)O)NC(=O)[C@H](C)NC(=O)[C@@H](NC(=O)[C@H](C)N)C(C)C)C(=O)N[C@@H](Cc1c[nH]cn1)C(=O)N[C@@H](CCC(N)=O)C(=O)N[C@@H](CCCCNC(=N)N)C(=O)N[C@@H](C)C(=O)N[C@@H](CCCCN)C(=O)N[C@@H](Cc1c[nH]c2ccccc12)C(N)=O` [Aib-5] (H-AVAE[Aib]QLMHQ[hArg]AKW-NH2), at human P1R [1], the EC50 was 66 µM and the “cAMP EMax(obs.)” value was 169 ± 18 pmole/well. The “Binding IC50” value on human P1R [2] is on record as “N.B”.
As to `CC[C@H](C)[C@H](NC(=O)[C@H](CCC(=O)O)NC(=O)[C@H](C)NC(=O)[C@@H](NC(=O)[C@H](C)N)C(C)C)C(=O)N[C@@H](CCC(N)=O)C(=O)N[C@@H](CC(C)C)C(=O)NC(C)(C)C(=O)N[C@@H](Cc1c[nH]cn1)C(=O)N[C@@H](CCC(N)=O)C(=O)N[C@@H](CCCCNC(=N)N)C(=O)N[C@@H](C)C(=O)N[C@@H](CCCCN)C(=O)N[C@@H](Cc1c[nH]c2ccccc12)C(N)=O` [Aib-8] (H-AVAEIQL[Aib]HQ[hArg]AKW-NH2), the “cAMP EMax(obs.)” value at human P1R [1] was 34 ± 7 pmole/well. The “Binding IC50” value on human P1R [2] is listed as “N.B”.
Regarding `CC[C@H](C)[C@H](NC(=O)[C@H](CCC(=O)O)NC(=O)[C@H](C)NC(=O)[C@@H](NC(=O)[C@H](C)N)C(C)C)C(=O)N[C@@H](CCC(N)=O)C(=O)N[C@@H](CC(C)C)C(=O)N[C@@H](CCSC)C(=O)NC(C)(C)C(=O)N[C@@H](CCC(N)=O)C(=O)N[C@@H](CCCCNC(=N)N)C(=O)N[C@@H](C)C(=O)N[C@@H](CCCCN)C(=O)N[C@@H](Cc1c[nH]c2ccccc12)C(N)=O` [Aib-9] (H-AVAEIQLM[Aib]Q[hArg]AKW-NH2), the “cAMP EMax(obs.)” value at human P1R [1] was determined as 51 ± 8 pmole/well. The “Binding IC50” value on human P1R [2] is listed as “N.B”.
On to `CC[C@H](C)[C@H](NC(=O)[C@H](CCC(=O)O)NC(=O)[C@H](C)NC(=O)[C@@H](NC(=O)[C@H](C)N)C(C)C)C(=O)N[C@@H](CCC(N)=O)C(=O)N[C@@H](CC(C)C)C(=O)N[C@@H](CCSC)C(=O)N[C@@H](Cc1c[nH]cn1)C(=O)N[C@@H](CCC(N)=O)C(=O)NC(C)(C)C(=O)N[C@@H](C)C(=O)N[C@@H](CCCCN)C(=O)N[C@@H](Cc1c[nH]c2ccccc12)C(N)=O` [Aib-11] (H-AVAEIQLMHQ[Aib]AKW-NH2), for which, at human P1R [1], the EC50 was determined as 67 µM and the “cAMP EMax(obs.)” value came out at 96 ± 18 pmole/well. For the same compound, on human P1R [2], the “Binding IC50” value is “N.B”.
For the compound `CC[C@H](C)[C@H](NC(=O)[C@H](CCC(=O)O)NC(=O)[C@H](C)NC(=O)[C@@H](NC(=O)[C@H](C)N)C(C)C)C(=O)N[C@@H](CCC(N)=O)C(=O)N[C@@H](CC(C)C)C(=O)N[C@@H](CCSC)C(=O)N[C@@H](Cc1c[nH]cn1)C(=O)N[C@@H](CCC(N)=O)C(=O)N[C@@H](CCCCNC(=N)N)C(=O)N[C@@H](C)C(=O)N[C@@H](CCCCN)C(=O)NC(C)(C)C(N)=O` [Aib-14] (H-AVAEIQLMHQ[hArg]AK[Aib]-NH2), the “cAMP EMax(obs.)” value at human P1R [1] was 273 ± 6 pmole/well.
In the case of “PTH(1-11): unmodified N-terminal PTH(1-11) peptide (SVSEIQLMHNL; Parathyroid hormone; UniProt P01270 32-42, looked up, fragment)”, in data set [3] (20 μM peptide, 50 mM phosphate buffer pH 7.4), the “[0]222obs × 10^−3, Phos.” value was −1.8. In addition, the “[0]222obs × 10^−3, Phos + TFE” value in data set [3] (20 μM peptide, 50 mM phosphate buffer with trifluoroethanol (20%)) was −8.4. In data set [3] (50 mM phosphate buffer with trifluoroethanol (20%), from elipticity at 222 nM), the “helical residues (%), Phos + TFE” value is 30%. In addition, the “helical residues (%), Phos.” value in data set [3] (50 mM phosphate buffer, from elipticity at 222 nM) stood at 6.5%.
“^125I-[Ala^3,12Nle^8Gln^10,Har^11,Trp^14,Tyr^15]PTH(1-15)amide (AVAEIQL[Nle]HQ[hArg]AKWY-NH2; also: 125I-labeled, place not given here) [reference compound]”: the “binding of radiolabeled peptide to HKRK-B28 cells (in words)” value in the data set with human P1R [2] (direct binding of the radioligand) was “did not bind detectably”.
